This note sets out measurements from patent US20250092031A1, “RIPK3 INHIBITORS AND METHODS OF USE” (Momentum Therapeutics, Inc., priority 2023, published 2025).

The test system of this assay is Murine L929 cells. The assay is described as follows: Necroptosis inhibition assay in L929 cells (mTNFα + zVAD, Sytox Green). It counts as cell-based. Particulars: Mus musculus, 10 ng/ml mTNFα and 20 μM zVAD, 6 hours, Sytox Green fluorescence. As to the method:
Murine L929 cells (ATCC-CCL-1) were seeded at 10,000 cells/well in a 96-well plate. Cells were treated 48 hours after seeding with 10 ng/ml mTNFα (R&D Systems) and 20 μM zVAD (ChemShuttle) in the presence of different concentrations of compounds ranging from […] to 0.01 μM. Cells treated with 0.1% DMSO or cells treated with TNFα+zVAD were used as control and vehicle respectively.
Assay plates containing cells were incubated for 6 hours at 37° C. and 5% CO2. Necroptosis was assessed using Sytox Green Nucleic Acid Stain (Invitrogen). After incubation, 100 μL of Sytox dye at 2 μM (2×) diluted in HBSS 1× was added in each well and incubated for 15 min at room temperature. Fluorescence (500ex/530em) was recorded using the Cytation 5 microplate reader (Biotek).
Percentage of necroptosis inhibition was calculated as the percent compared to control and vehicle conditions which correspond to 100% and 0% respectively. The half-maximum necroptosis inhibition (IC50) levels were calculated using GraphPad Prism software and are shown in Table 3 (NT represents compound not tested).
As usually defined, the IC50 is the concentration at which inhibition is half-maximal. As to `COc1ccc(-c2ccc3c(Nc4ccc(C5CCN(C)CC5)c(F)c4)ccnc3c2)cc1` [Compound 2, N-(3-fluoro-4-(1-methylpiperidin-4-yl)phenyl)-7-(4-methoxyphenyl)quinolin-4-amine], the IC50 is over 10 µM.

For `CN1CCC(c2ccc(Nc3ccnc4cc(-c5ccccc5F)ccc34)nc2)CC1` [Compound 3, 7-(2-fluorophenyl)-N-(5-(1-methylpiperidin-4-yl)pyridin-2-yl)quinolin-4-amine], the IC50 was over 10 µM. For `CN1CCC(c2ccc(Nc3ccc4nccc(Nc5ccc6scnc6c5)c4c3)cc2F)CC1` [Compound 4, N4-(benzo[d]thiazol-5-yl)-N6-(3-fluoro-4-(1-methylpiperidin-4-yl)phenyl)quinoline-4,6-diamine] the value was over 10 µM; for `CN1CCC(c2ccc(Nc3ccnc4cc(-c5ccccc5F)ccc34)cc2F)CC1` [Compound 5, N-(3-fluoro-4-(1-methylpiperidin-4-yl)phenyl)-7-(2-fluorophenyl)quinolin-4-amine], over 10 µM.

`CN1CCC(c2ccc(Nc3ccnc4cc(-c5ccccn5)ccc34)cc2F)CC1` [Compound 6, N-(3-fluoro-4-(1-methylpiperidin-4-yl)phenyl)-7-(pyridin-2-yl)quinolin-4-amine]: the IC50 was over 10 µM. `COc1ccc(-c2ccc3c(Nc4ccc(C5CCN(C)CC5)cn4)ccnc3c2)cc1` [Compound 7, 7-(4-methoxyphenyl)-N-(5-(1-methylpiperidin-4-yl)pyridin-2-yl)quinolin-4-amine]: the IC50 was over 10 µM. The result for `CN1CCC(c2ccc(Nc3ccnc4cc(-c5ccccn5)ccc34)nc2)CC1` [Compound 8, N-(5-(1-methylpiperidin-4-yl)pyridin-2-yl)-7-(pyridin-2-yl)quinolin-4-amine] reads over 10 µM; that for `CN1CCC(c2ccc(Nc3ccc4nccc(Nc5ccc6scnc6c5)c4c3)nc2)CC1` [Compound 9, N4-(benzo[d]thiazol-5-yl)-N6-(5-(1-methylpiperidin-4-yl)pyridin-2-yl)quinoline-4,6-diamine], over 10 µM. For `Cc1ccc(Oc2ccnc3cc(-c4ccc(CN5CCN(C)CC5)c(F)c4)ccc23)cc1` [Compound 10, 7-(3-fluoro-4-((4-methylpiperazin-1-yl)methyl)phenyl)-4-(p-tolyloxy)quinoline] the value was over 10 µM; for `c1cc(Nc2ccc3scnc3c2)c2cc(-c3ccc(N4CCOCC4)cc3)ccc2n1` [Compound 18, N-(6-(4-morpholinophenyl)quinolin-4-yl)benzo[d]thiazol-5-amine], under 10 µM; for `COc1ccc(Nc2ccnc3ccc(-c4ccc(N5CCN(C)CC5)cc4)cc23)cc1OC` [Compound 19, N-(3,4-dimethoxyphenyl)-6-(4-(4-methylpiperazin-1-yl)phenyl)quinolin-4-amine], over 10 µM. Turning to `CN1CCN(c2ccc(-c3ccc4nccc(Nc5ccc(Cl)c(Cl)c5)c4c3)cc2)CC1` [Compound 20, N-(3,4-dichlorophenyl)-6-(4-(4-methylpiperazin-1-yl)phenyl)quinolin-4-amine], the IC50 was under 10 µM. The result for `CN1CCN(c2ccc(-c3ccc4nccc(Nc5ccc6scnc6c5)c4c3)cn2)CC1` [Compound 24, N-(6-(6-(4-methylpiperazin-1-yl)pyridin-3-yl)quinolin-4-yl)benzo[d]thiazol-5-amine] reads under 10 µM; that for `c1cc(Nc2ccc3scnc3c2)c2cc(-c3ccc(N4CCCCC4)nc3)ccc2n1` [Compound 25, N-(6-(6-(piperidin-1-yl)pyridin-3-yl)quinolin-4-yl)benzo[d]thiazol-5-amine], over 10 µM. The result for `Nc1nc2cc(Nc3ccnc4ccc(-c5ccc(CN6CCCC6)cc5F)cc34)ccc2s1` [Compound 26, N5-(6-(2-fluoro-4-(pyrrolidin-1-ylmethyl)phenyl)quinolin-4-yl)benzo[d]thiazole-2,5-diamine] reads over 10 µM.

On to `c1cc(Nc2ccc3scnc3c2)c2cc(-c3ccc(N4CCCC4)cc3)ccc2n1` [Compound 30, N-(6-(4-(pyrrolidin-1-yl)phenyl)quinolin-4-yl)benzo[d]thiazol-5-amine], for which the IC50 was over 10 µM.
